In the supplement of paper PMC10307832:

Columns and labels:
Assay in all cases: relative viability (nuclei count vs DMSO), 5 days (fraction); higher = more cells survive
SW 900 = tested on: SW 900
In short: (§1)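 Dosing by pin tool came one day after lung cancer cell lines were seeded in 1536-well plates, using either one drug or a fixed anchor-drug dose plus five library-drug doses (not always all listed) in √10 steps. After 5 days, nuclei were counted on 4× images. Relative viability is treated-well nuclei count divided by vehicle-well nuclei count, and values are medians of duplicate plates.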

NCI-H2342 = tested on: NCI-H2342
In short: as §1

NCI-H522 = tested on: NCI-H522
In short: as §1

NCI-H1648 = tested on: NCI-H1648
In short: as §1

NCI-H1563 = tested on: NCI-H1563
In short: as §1

SMILES | relative viability (SW 900; first compound 0.08 µM) | relative viability (SW 900; first compound 0.253 µM) | relative viability (SW 900; first compound 0.8 µM) | relative viability (SW 900; first compound 2.53 µM) | relative viability (NCI-H2342; first compound 0.08 µM) | relative viability (NCI-H2342; first compound 0.253 µM) | relative viability (NCI-H2342; first compound 0.8 µM) | relative viability (NCI-H2342; first compound 2.53 µM) | relative viability (NCI-H522; first compound 0.08 µM) | relative viability (NCI-H522; first compound 0.253 µM) | relative viability (NCI-H522; first compound 0.8 µM) | relative viability (NCI-H522; first compound 2.53 µM) | relative viability (NCI-H1648; first compound 0.08 µM) | relative viability (NCI-H1648; first compound 0.253 µM) | relative viability (NCI-H1648; first compound 0.8 µM) | relative viability (NCI-H1648; first compound 2.53 µM) | relative viability (NCI-H1563; first compound 0.08 µM) | relative viability (NCI-H1563; first compound 0.253 µM) | relative viability (NCI-H1563; first compound 0.8 µM) | relative viability (NCI-H1563; first compound 2.53 µM) | relative viability (SW 900; first compound 5 µM) | relative viability (SW 900; first compound 50 µM) | relative viability (SW 900; first compound 158.11 µM) | relative viability (SW 900; first compound 500 µM) | relative viability (NCI-H2342; first compound 5 µM) | relative viability (NCI-H2342; first compound 15.81 µM) | relative viability (NCI-H2342; first compound 50 µM) | relative viability (NCI-H2342; first compound 158.11 µM) | relative viability (NCI-H2342; first compound 500 µM) | relative viability (NCI-H522; first compound 5 µM) | relative viability (NCI-H522; first compound 15.81 µM) | relative viability (NCI-H522; first compound 50 µM) | relative viability (NCI-H522; first compound 158.11 µM) | relative viability (NCI-H522; first compound 500 µM) | relative viability (NCI-H1648; first compound 5 µM) | relative viability (NCI-H1648; first compound 15.81 µM) | relative viability (NCI-H1648; first compound 50 µM) | relative viability (NCI-H1648; first compound 158.11 µM) | relative viability (NCI-H1648; first compound 500 µM)
Cc1cnc(-c2cnc(NCCNc3ccc(C#N)cn3)nc2-c2ccc(Cl)cc2Cl)[nH]1 + CC(=O)Nc1cccc(-n2c(=O)n(C3CC3)c(=O)c3c(Nc4ccc(I)cc4F)n(C)c(=O)c(C)c32)c1 [Trametinib] (partner 0.02 µM) | 0.905 | 0.629 | 0.772 | 0.765 | 0.923 | 0.653 | 0.801 | 0.697 | 0.909 | 0.719 | 0.799 | 0.722 | 0.5 | 0.381 | 0.476 | 0.456 |  |  |  |  |  |  |  |  |  |  |  |  |  |  |  |  |  |  |  |  |  |  | 
Cc1cnc(-c2cnc(NCCNc3ccc(C#N)cn3)nc2-c2ccc(Cl)cc2Cl)[nH]1 + CC(=O)c1c(C)c2cnc(Nc3ccc(N4CCNCC4)cn3)nc2n(C2CCCC2)c1=O [Palbociclib] (partner 0.5 µM) | 0.565 | 0.513 | 0.528 | 0.515 | 0.522 | 0.516 | 0.557 | 0.463 | 1.15 | 0.927 | 0.974 | 0.862 | 0.267 | 0.243 | 0.265 | 0.265 |  |  |  |  |  |  |  |  |  |  |  |  |  |  |  |  |  |  |  |  |  |  | 
Cc1cnc(-c2cnc(NCCNc3ccc(C#N)cn3)nc2-c2ccc(Cl)cc2Cl)[nH]1 + Nc1nc2[nH]cc(CCc3ccc(C(=O)N[C@@H](CCC(=O)O)C(=O)O)cc3)c2c(=O)[nH]1 [Pemetrexed] (partner 0.2 µM) | 0.501 | 0.487 | 0.478 | 0.438 | 0.823 | 0.633 | 0.721 | 0.736 | 1.08 | 1.03 | 0.97 | 1.07 | 0.545 | 0.723 | 0.703 | 0.653 | 0.746 | 0.805 | 0.768 | 0.722 |  |  |  |  |  |  |  |  |  |  |  |  |  |  |  |  |  |  | 
O=C(O)CCCCC(CCSCc1ccccc1)SCc1ccccc1 (stereo not given) [CPI-613] + CC(=O)Nc1cccc(-n2c(=O)n(C3CC3)c(=O)c3c(Nc4ccc(I)cc4F)n(C)c(=O)c(C)c32)c1 [Trametinib] (partner 0.02 µM) |  |  |  |  |  |  |  |  |  |  |  |  |  |  |  |  |  |  |  |  | 0.701 | 0.706 | 0.359 | 0.0323 | 0.747 | 0.888 | 0.977 | 0.786 | 0.955 | 0.707 | 0.739 | 0.751 | 0.651 | 0.284 | 0.454 | 0.376 | 0.533 | 0.218 | 0.14
O=C(O)CCCCC(CCSCc1ccccc1)SCc1ccccc1 (stereo not given) [CPI-613] + CC(=O)c1c(C)c2cnc(Nc3ccc(N4CCNCC4)cn3)nc2n(C2CCCC2)c1=O [Palbociclib] (partner 0.5 µM) |  |  |  |  |  |  |  |  |  |  |  |  |  |  |  |  |  |  |  |  | 0.57 | 0.557 | 0.208 | 0.0276 | 0.497 | 0.536 | 0.492 | 0.52 | 0.588 | 1.03 | 1.13 | 1.08 | 0.708 | 0.301 | 0.285 | 0.302 | 0.299 | 0.192 | 0.128
